# No end group written: not given here.
# Tests used:
# A. fumigatus = assay: Aspergillosis in experimental HSCT after adoptive transfer of fungus-pulsed DCs; format: in vivo, mouse
# Description: Human peripheral blood mononuclear cells were obtained from healthy donors and seven recipients of T-cell depleted haploidentical HSCT, upon written informed consent. Donor typing, engraftment and GVHD were assessed as described (Blood. 2005; 106; 4397-4406). Experimental HSCT model Lethally irradiated (8 Gy) C57BL6 mice were infused with T cell-depleted bone marrow cells from BALB/c mice (Blood. 2003; 102:3807-3814). For GVHD, purified donor CD3+ T splenocytes were added to the graft (Science. 2002; 295:2097-2100). Individual mice were graded weekly from 0-2 for each GVHD criterion (see legend to FIG. 3) without knowledge of treatment group.
# The strain of A. fumigatus, the culture conditions and infection were as described in Blood. 2004; 103:4232-4239. Mice were anesthetized with 2.5% avertin (Sigma Chemical Co, St. Louis, Mo.). Quantification of fungal growth in the lungs was done by the chitin assay and results are expressed as micrograms of glucosamine per pair of lungs, and PAS staining was done as described in Blood. 2004; 103:4232-4239.
# Mice received twice intraperitoneal injections of DCs, at weekly interval, starting a day after HSCT and infected a week after the last DC administration. Three days later, lung homogenates, CD4+ T cells (>98% on FACS analysis), CD4+CD25− (>98%) or CD4+CD25+ (>82%) purified with the specific Miltenyi Biotec isolation kits were assessed for pattern of pro- and anti-inflammatory (TNF-a/IL-10 in lung homogenates), Th1 (IFN-γ) or Th2 (IL-4) cytokine production by CD4+ cells stimulated with Aspergillus-pulsed DCs (Blood. 2003; 102:3807-3814) frequency of CD25+ IL-10^+ TGF-β+ T reg cells, lymphoproliferation and gene expression by RT-PCR. For proliferation, TLN CD4+ T lymphocytes were plated (10^5 cells/well) with 10^5 cells/well irradiated allogeneic splenocytes or autologous spDCs pulsed with conidia or 10 μg/mL Con A for five days before H^3-thymidine labeling.
# Lethally irradiated C57BL/6 mice received=2×10^6 T cell-depleted allogeneic bone marrow cells from BALB/c mice 2 wk before the intratracheal injection of 2×10^8/80 μl saline Aspergillus conidia. One and seven days after transplantation, mice received Aspergillus-pulsed GM- or FL-DCs grown in Thymosin alpha 1, intraperitoneally.
# Resistance to infection was assessed in terms of MST (median survival time in days) and fungal growth in the lung ([…] glucosamine content, bars indicating standard errors) 3 days after infection or at the time of death (A). […] The degree of systemic GVHD was assessed by a scoring system that sums changes in five clinical parameters: weight loss, posture (hunching), activity, fur texture, and skin integrity (maximum index=10). […]
# [1] = tested on: peripheral CD14+ cells (GM-DCs, FL-DCs); assay: Human DC generation from peripheral CD14+ cells, surface expression; format: cell-based
# From the text: GM-DCs or FL-DCs were obtained from purified CD14+ monocytes from healthy donors or transplanted patients (1 month post-HSCT) cultured in Iscove's modified medium for 7-9 days, in the presence of rGM-CSF (Schering-Plough, Milan, Italy) and rIL-4 (Peprotech, Inalco, Milan, Italy) or FLT3-L (Immunex Corporation, Seattle, Wash.) (Blood. 2004; 103:4232-4239). DC recovery was between 20-30% reduced in cultures from transplanted patients. Murine GM-DCs or FL-DCs were obtained from bone marrow cells for 7-9 days, as described (Blood. 2004; 103:4232-4239). Thymosin alpha 1 and sThymosin alpha 1 were added to the cultures at 20 ng/mL. DCs (>99% CD11c+ consisting of 90-95% CD8-, 5-10% CD8+, and 1-5% B220+ cells) were purified from spleens (spDCs) by magnetic-activated sorting using CD11c MicroBeads and MidiMacs (Miltenyi Biotech). DC populations were further separated into CD8−, CD8+ and B220+ fractions by means of CD8 or B220 MicroBeads (Miltenyi Biotech). DCs were pulsed in serum-free Iscove medium for 24 hours with live unopsonized Aspergillus conidia or Zymosan from Saccharomyces cerevisiae (Sigma) or CpG-ODN 2006 as described.7 Phagocytosis was done as described (Blood. 2004; 103:4232-4239). Photographs were taken using a high Resolution Microscopy Color Camera AxioCam, using the AxioVision Software Rel. 3.1 (Carl Zeiss, Milan, Italy).
# DCs were analyzed for antigen expression with a FACScan flow cytofluorometer (Becton Dickinson, Mountain View, Calif.) equipped with CELLQuest™ software and using conjugated mAbs from PharMingen (Blood. 2004; 103:4232-4239).
# (A) Surface expression of CD11c, CD1a and CD123 on DCs derived from peripheral CD14+ cells of different donors with GM-CSF/IL-4 (GM-DCs) or FLT3L (FL-DCs) in the presence of Thymosin alpha 1. Percent of positive cells is indicated.
# [2] = tested on: human non-small cell lung cancer (NSCLC) cells; settings: subcutaneous administration, nude mice; cited from earlier work
# [3] = tested on: methylcholanthrene-induced fibrosarcoma; settings: mice; cited from earlier work
# lymphosarcoma cells = settings: BALB/c mice; cited from earlier work
# [4] = GM-CSF/IL-4-treated cultures, healthy donors
substance,measurement,setting,value
"Thymosin alpha 1: naturally occurring thymic peptide; supplied as purified, endotoxin-free sterile lyophilized acetylated polypeptide from SciClone Pharmaceuticals (Ac-SDAAVDTSSEITTKDLKEKKEVVEEAEN; UniProt P06454 2-29, looked up)",survival to infection in the presence of donor T cells,A. fumigatus; donor T cells plus Thymosin alpha 1-treated GM-DCs,survived infection
same,local inflammatory cell recruitment and reaction in the lungs (histopathology),"A. fumigatus; mice infused with Thymosin alpha 1-treated GM-DCs, 3 days after infection",few healing infiltrates of inflammatory cells with no evidence of bronchial wall damage and inflammatory response and low
same,vaccinating potential of FL-DCs,A. fumigatus; transfer of Thymosin alpha 1-treated FL-DCs,would not affect the vaccinating potential of FL-DCs
same,"protection from aspergillosis (survival, fungal growth)","A. fumigatus; transfer of Thymosin alpha 1-treated GM-DCs, intraperitoneally",complete protection
same,mobilization of CD123+ pDCs and CD1a+ DCs in FLT3-L cultures,[1]; FLT3-L cultures,No such effects were observed
same,mobilization of CD1a+DCs,[1]; [4],decreasing that of CD1a+DCs
same,mobilization of CD123+ pDCs,[1]; [4],promoted the mobilization of CD123+ pDCs
same,tumor volume,[2],significantly decreased tumor volume
same,pulmonary metastases,[3],reduced
same,"local sarcoma growth, liver and lung metastases of lymphosarcoma cells",lymphosarcoma cells,significantly reduced

# — patent US8022036B2, “Use of thymosin alpha 1 for the treatment of immunological diseases” (Sigma-Tau Industrie Farmaceutiche Riunite S.p.A., priority 2006, dated 2011)
